According to patent publication US12054498B2, “Heteroaromatic macrocyclic ether chemotherapeutic agents” (Nuvalent, Inc., priority 2020, dated 2024):
pIC50, pKi: −log10 of the molar value.

How the values were obtained:
ROS1-G2032R = molecular target: T1, ROS1-G2032R (Homo sapiens, UniProt P08922, G2032R); assay: Biochemical kinase assay, ROS1-G2032R kinase domain; details: apparent inhibitory constant, Morrison equation; ATP 2 mM in substrate solution; read-out: ROS1-G2032R Ki^app
T1 construct: purchased SignalChem R14-12BG
T1 sequence (P08922 1945-2222 G2032R limits assumed): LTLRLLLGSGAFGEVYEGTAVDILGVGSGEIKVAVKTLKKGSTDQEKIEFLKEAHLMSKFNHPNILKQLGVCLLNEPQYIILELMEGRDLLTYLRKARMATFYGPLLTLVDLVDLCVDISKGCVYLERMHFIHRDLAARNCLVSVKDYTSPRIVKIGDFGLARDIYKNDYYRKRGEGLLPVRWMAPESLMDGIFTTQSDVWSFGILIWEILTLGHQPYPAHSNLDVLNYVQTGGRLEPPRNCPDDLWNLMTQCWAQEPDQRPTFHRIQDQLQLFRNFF
Summary of the method: (§1)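 Compounds, as 100-fold DMSO stocks, were dispensed first, then substrate mix was added (ATP 2 mM, AQT0101 26 μM, in 50 mM HEPES pH 7.5/10 mM MgCl2). Reactions ran at 30 °C with fluorescence logged every 2 min over 120 min. Apparent inhibition constants came from fitting rates to Morrison's tight-binding equation.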

Ba/F3 cells TPM3-TRKA = molecular target: T2, Ba/F3 cells TPM3-TRKA (Homo sapiens, UniProt P04629); assay: Ba/F3 cell proliferation assay, TPM3-TRKA; assay type: cell-based; details: 72 hours, CellTiter-Glo, read-out: TPM3-NTRK1-wt IC50
T2 construct: host or cells: Ba/F3 (RIKEN), retroviral pMSCV-puro; the other entry of the earlier key: TPM3 (P06753, Tropomyosin alpha-3 chain)
T2 sequence (P04629 510-796 limits assumed): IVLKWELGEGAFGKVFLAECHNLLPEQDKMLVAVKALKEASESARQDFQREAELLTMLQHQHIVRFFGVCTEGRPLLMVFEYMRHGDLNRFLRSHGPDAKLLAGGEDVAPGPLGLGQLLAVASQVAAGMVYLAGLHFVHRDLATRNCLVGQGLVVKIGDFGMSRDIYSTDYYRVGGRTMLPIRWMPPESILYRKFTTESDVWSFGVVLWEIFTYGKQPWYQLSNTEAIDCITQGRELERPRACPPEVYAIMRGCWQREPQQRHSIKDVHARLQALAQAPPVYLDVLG
Summary of the method: (§2)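 Luminescence from CellTiter-Glo after 72 hours of compound exposure measured viability of IL-3-independent Ba/F3 cells carrying the retrovirally introduced fusion. Cells were plated at 1,000 per well one day before 3-fold serial dilutions were added. IC50 values came from four-parameter logistic regression.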

[1] = molecular target: T3, Ba/F3 cells CD74-ROS1 wild-type (wt) (Homo sapiens, UniProt P08922); assay: Ba/F3 cell proliferation assay, CD74-ROS1 wild-type; assay type: cell-based; details: 72 hours, CellTiter-Glo
T3 construct: fusion of the C-terminus of ROS1 with the N-terminus of various partner proteins; host or cells: Ba/F3 (RIKEN), retroviral pMSCV-puro; the other entry of the earlier key: CD74 (P04233, HLA class II histocompatibility antigen gamma chain)
T3 sequence (P08922 1883-2347 limits assumed): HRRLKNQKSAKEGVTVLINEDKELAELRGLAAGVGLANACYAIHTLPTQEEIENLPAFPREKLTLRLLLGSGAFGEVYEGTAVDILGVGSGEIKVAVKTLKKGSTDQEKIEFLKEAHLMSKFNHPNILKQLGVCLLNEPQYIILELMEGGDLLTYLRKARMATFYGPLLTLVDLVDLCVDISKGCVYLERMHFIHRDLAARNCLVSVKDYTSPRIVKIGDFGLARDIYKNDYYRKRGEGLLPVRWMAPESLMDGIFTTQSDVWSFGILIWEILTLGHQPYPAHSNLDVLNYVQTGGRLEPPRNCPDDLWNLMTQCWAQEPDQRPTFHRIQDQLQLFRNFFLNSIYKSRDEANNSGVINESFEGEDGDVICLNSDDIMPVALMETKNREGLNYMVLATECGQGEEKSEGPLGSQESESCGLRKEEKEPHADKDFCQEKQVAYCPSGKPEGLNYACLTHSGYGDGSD
Summary of the method: (§3)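 IL-3-independent Ba/F3 CD74-ROS1 lines, puromycin-selected monoclones; 1,000 cells/well, plated 1 d before dosing; 3-fold serial dilutions, 72 h; CellTiter-Glo luminescence; IC50 by 4-parameter logistic regression.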

[2] = molecular target: T4, Ba/F3 cells CD74-ROS1 G2032R (Homo sapiens, UniProt P08922, G2032R); assay: Ba/F3 cell proliferation assay, CD74-ROS1 G2032R; assay type: cell-based; details: 72 hours, CellTiter-Glo
T4 construct: fusion of the C-terminus of ROS1 with the N-terminus of various partner proteins; host or cells: Ba/F3 (RIKEN), retroviral pMSCV-puro; the other entry of the earlier key: CD74 (P04233, HLA class II histocompatibility antigen gamma chain)
T4 sequence (P08922 1883-2347 G2032R limits assumed): as the sequence (P08922 1883-2347 limits assumed) above, with G150R counted along it
Summary of the method: as §3

[3] = molecular target: T5, Ba/F3 cells EML4-ALK wt (variant 1) (Homo sapiens, UniProt Q9UM73); assay: Ba/F3 cell proliferation assay, EML4-ALK wt (variant 1); assay type: cell-based; details: 72 hours, CellTiter-Glo
T5 construct: echinoderm microtubule-associated protein-like 4 (EML4) gene and the ALK tyrosine kinase domain; host or cells: Ba/F3 (RIKEN), retroviral pMSCV-puro; the other entry of the earlier key: EML4 (Q9HC35, Echinoderm microtubule-associated protein-like 4)
T5 sequence (Q9UM73 with tags, fused parts or gaps): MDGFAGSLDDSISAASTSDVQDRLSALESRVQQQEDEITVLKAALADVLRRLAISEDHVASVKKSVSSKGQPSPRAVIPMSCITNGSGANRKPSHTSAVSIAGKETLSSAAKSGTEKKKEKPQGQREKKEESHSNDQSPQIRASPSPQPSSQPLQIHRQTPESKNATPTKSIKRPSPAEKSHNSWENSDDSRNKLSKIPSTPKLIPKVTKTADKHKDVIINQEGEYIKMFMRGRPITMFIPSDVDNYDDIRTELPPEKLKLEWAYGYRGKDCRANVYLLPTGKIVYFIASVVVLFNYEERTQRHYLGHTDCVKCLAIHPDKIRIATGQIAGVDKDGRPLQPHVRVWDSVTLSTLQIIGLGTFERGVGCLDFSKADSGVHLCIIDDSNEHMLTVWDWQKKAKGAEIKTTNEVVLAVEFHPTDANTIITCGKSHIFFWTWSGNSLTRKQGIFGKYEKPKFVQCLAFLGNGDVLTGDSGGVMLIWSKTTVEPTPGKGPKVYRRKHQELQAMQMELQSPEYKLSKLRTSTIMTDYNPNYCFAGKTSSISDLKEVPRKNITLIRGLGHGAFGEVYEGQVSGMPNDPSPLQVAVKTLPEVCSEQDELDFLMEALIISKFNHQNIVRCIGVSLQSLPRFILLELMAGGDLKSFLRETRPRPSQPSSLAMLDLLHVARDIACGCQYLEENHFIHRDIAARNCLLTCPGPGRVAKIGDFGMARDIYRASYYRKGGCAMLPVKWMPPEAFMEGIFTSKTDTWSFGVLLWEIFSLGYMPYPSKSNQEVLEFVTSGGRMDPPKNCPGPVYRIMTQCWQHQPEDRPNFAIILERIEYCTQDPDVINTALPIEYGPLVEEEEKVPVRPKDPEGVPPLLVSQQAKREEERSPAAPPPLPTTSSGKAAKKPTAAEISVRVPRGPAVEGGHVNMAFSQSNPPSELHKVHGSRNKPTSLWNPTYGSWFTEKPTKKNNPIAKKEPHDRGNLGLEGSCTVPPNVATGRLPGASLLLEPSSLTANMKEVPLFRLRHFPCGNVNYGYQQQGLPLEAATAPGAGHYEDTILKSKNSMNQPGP
Summary of the method: as §2

[4] = molecular target: T6, Ba/F3 cells EML4-ALK L1196M/G1202R (variant 1) (Homo sapiens, UniProt Q9UM73, G1202R/L1196M); assay: Ba/F3 cell proliferation assay, EML4-ALK L1196M/G1202R (variant 1); assay type: cell-based; details: 72 hours, CellTiter-Glo
T6 construct: echinoderm microtubule-associated protein-like 4 (EML4) gene and the ALK tyrosine kinase domain; host or cells: Ba/F3 (RIKEN), retroviral pMSCV-puro; the other entry of the earlier key: EML4 (Q9HC35, Echinoderm microtubule-associated protein-like 4)
T6 sequence (Q9UM73 with tags, fused parts or gaps L1196M/G1202R): as the sequence (Q9UM73 with tags, fused parts or gaps) above, with L635M, G641R counted along it
Summary of the method: as §2

ALK L1196M/G1202R = molecular target: T7, ALK L1196M/G1202R (Homo sapiens, UniProt Q9UM73, G1202R/L1196M); assay: Biochemical kinase assay, ALK L1196M/G1202R kinase domain; details: apparent inhibitory constant, Morrison equation; ATP 2 mM in substrate solution; read-out: ALK-L1196M-G1202R Ki^app
T7 construct: purchased SignalChem A19-12NG
T7 sequence (Q9UM73 1116-1392 L1196M/G1202R limits assumed): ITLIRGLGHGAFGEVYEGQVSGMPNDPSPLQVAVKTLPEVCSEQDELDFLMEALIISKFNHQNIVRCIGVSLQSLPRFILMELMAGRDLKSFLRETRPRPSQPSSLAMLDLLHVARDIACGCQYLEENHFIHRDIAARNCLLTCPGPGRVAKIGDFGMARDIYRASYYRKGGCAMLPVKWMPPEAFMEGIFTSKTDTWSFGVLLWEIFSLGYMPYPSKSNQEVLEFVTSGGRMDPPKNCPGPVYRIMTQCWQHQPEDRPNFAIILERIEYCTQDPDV
Summary of the method: (§4)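 Kinase domains (in kinase solution: ROS1-G2032R 0.5 nM, ROS1-wt 0.6 nM, TRKA 1 nM, ALK L1196M/G1202R 3 nM) were mixed with compound and a substrate solution of 2 mM ATP plus 26 μM fluorogenic AQT0101 (ALK, ROS1) or AQT0104 (TRKA) in HEPES pH 7.5/MgCl2. Fluorescence was followed for 120 min at 30° C; Ki^app was obtained by Morrison fit of initial rates.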

ALK-wt = molecular target: T8, ALK-wt (Homo sapiens, UniProt Q9UM73); assay: Biochemical kinase assay, ALK-wt kinase domain; details: apparent inhibitory constant, Morrison equation; ATP 2 mM in substrate solution; read-out: ALK-wt Ki^app
T8 construct: purchased Carna 08-518
T8 sequence (Q9UM73 1116-1392 limits assumed): as the sequence (Q9UM73 1116-1392 L1196M/G1202R limits assumed) above, with M81L, R87G counted along it
Summary of the method: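 Apparent Ki values come from fitting initial reaction rates against inhibitor concentration to the Morrison equation. Rates were taken from the linear phase of fluorogenic substrate phosphorylation (AQT0101 for ALK and ROS1, AQT0104 for TRKA; 26 μM in substrate solution with 2 mM ATP), monitored at 485 nm over 120 min at 30° C.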

TRKA-wt = molecular target: T9, TRKA-wt (Homo sapiens, UniProt P04629); assay: Biochemical kinase assay, TRKA-wt kinase domain; details: apparent inhibitory constant, Morrison equation; ATP 2 mM in substrate solution; read-out: TRKA-wt Ki^app
T9 construct: or TRKA-wt (1 nM, BPS Bio, 40280) kinase domains in buffer; purchased BPS Bio 40280
T9 sequence (P04629 510-781 limits assumed): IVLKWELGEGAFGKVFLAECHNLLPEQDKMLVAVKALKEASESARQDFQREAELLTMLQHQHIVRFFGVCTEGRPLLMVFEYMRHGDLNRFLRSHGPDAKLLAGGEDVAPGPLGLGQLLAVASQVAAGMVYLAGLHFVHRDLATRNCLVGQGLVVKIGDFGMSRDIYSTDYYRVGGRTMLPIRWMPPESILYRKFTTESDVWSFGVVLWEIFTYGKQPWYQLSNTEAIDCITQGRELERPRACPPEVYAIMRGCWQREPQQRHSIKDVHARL
Summary of the method: as §4

ROS1-wt = molecular target: T10, ROS1-wt (Homo sapiens, UniProt P08922); assay: Biochemical kinase assay, ROS1-wt kinase domain; details: apparent inhibitory constant, Morrison equation; ATP 2 mM in substrate solution; read-out: ROS1-wt Ki^app
T10 construct: purchased Carna 08-163
T10 sequence (P08922 1945-2222 limits assumed): as the sequence (P08922 1945-2222 G2032R limits assumed) above, with R88G counted along it
Summary of the method: as §1

[5] = tested on: TPM3-NTRK1-wt IC50 / primary target IC50 (e.g. CD74-ROS1-wt); assay: TRKA selectivity in Ba/F3 cells (TRKA potency divided by primary target potency); assay type: cell-based; details: for TPM3-NTRK1-wt/CD74-ROS1-G2032R selectivity ratio: TRKA potency / CD74-ROS1-G2032R potency; for TPM3-NTRK1-wt/CD74-ROS1-wt selectivity ratio: TRKA potency / CD74-ROS1-wt potency; for TPM3-NTRK1-wt/EML4-ALK-L1196M-G1202R selectivity ratio: TRKA potency / EML4-ALK-L1196M-G1202R potency; for TPM3-NTRK1-wt/EML4-ALK-wt selectivity ratio: TRKA potency / EML4-ALK-wt potency
Protocol: TRKA selectivity was calculated by dividing a compound's TRKA potency by its primary target potency (e.g. TPM3-NTRK1-wt IC50/CD74-ROS1-wt IC50). Compound selectivity can be interpreted by binning ratio values: bin A for very high selectivity, ratio >30-fold; bin B for high selectivity, ratio >10-fold; bin C for moderate selectivity, ratio ≥1; and bin D for low selectivity, ratio <1. […] (nd=not determined).

pKi (ROS1-G2032R)	pIC50 (Ba/F3 cells TPM3-TRKA)	pIC50 [1]	pIC50 [2]	pIC50 [3]	pIC50 [4]	pKi (ALK L1196M/G1202R)	pKi (ALK-wt)	pKi (TRKA-wt)	pKi (ROS1-wt)	Structure (SMILES)	TPM3-NTRK1-wt/CD74-ROS1-G2032R selectivity ratio [5]	TPM3-NTRK1-wt/CD74-ROS1-wt selectivity ratio [5]	TPM3-NTRK1-wt/EML4-ALK-L1196M-G1202R selectivity ratio [5]	TPM3-NTRK1-wt/EML4-ALK-wt selectivity ratio [5]
> 7.30	6.30 to 7.30	7.30 to 10.00	7.30 to 10.00	7.30 to 10.00	7.30 to 10.00	> 7.30	> 7.30	6.30 to 7.30	> 7.30	CCc1nn(C)c2c1-c1cnc(N)c(c1)O[C@H](C)c1cc(F)ccc1-c1nn(C)nc1C2 [Example 98, (19R)-3-ethyl-16-fluoro-5,10,19-trimethyl-20-oxa-4,5,9,10,11,23-hexaazapentacyclo[19.3.1.0^2,^6.0^8,^12.0^13,^18]pentacosa-1(24),2(6),3,8,11,13,15,17,21(25),22-decaen-22-amine]	A (bin A for very high selectivity, ratio >30-fold)	A (bin A for very high selectivity, ratio >30-fold)	C (bin C for moderate selectivity, ratio ≥1)	A (bin A for very high selectivity, ratio >30-fold)
6.30 to 7.30	< 6.30	7.30 to 10.00	7.30 to 10.00	6.30 to 7.30	< 6.30	6.30 to 7.30	> 7.30	< 6.30	> 7.30	C[C@H]1Oc2cc(cnc2N)-c2c(cnn2C(F)F)Cn2nccc2-c2ccc(F)cc21 [Example 12, (19R)-3-(difluoromethyl)-16-fluoro-19-methyl-20-oxa-3,4,8,9,23-pentaazapentacyclo[19.3.1.0^2,^6.0^8,^12.0^13,^18]pentacosa-1(24),2(6),4,9,11,13,15,17,21(25),22-decaen-22-amine]	A (bin A for very high selectivity, ratio >30-fold)	A (bin A for very high selectivity, ratio >30-fold)	C (bin C for moderate selectivity, ratio ≥1)	A (bin A for very high selectivity, ratio >30-fold)
> 7.30	6.30 to 7.30	7.30 to 10.00	7.30 to 10.00	7.30 to 10.00	6.30 to 7.30	> 7.30	> 7.30	< 6.30	> 7.30	CCn1nc(Cl)c2c1-c1cnc(N)c(c1)O[C@H](C)c1cc(F)ccc1-c1nn(C)nc1C2 [Example 28, (19R)-5-chloro-3ethyl-16-fluoro-10,19-dimethyl-20-oxa-3,4,9,10,11,23-hexaazapentacyclo[19.3.1.0^2,^6.0^8,^12.0^13,^18]pentacosa-1(24),2(6),4,8,11,13,15,17,21(25),22-decaen-22-amine]	A (bin A for very high selectivity, ratio >30-fold)	A (bin A for very high selectivity, ratio >30-fold)	C (bin C for moderate selectivity, ratio ≥1)	B (bin B for high selectivity, ratio >10-fold)
> 7.30	< 6.30	7.30 to 10.00	7.30 to 10.00	7.30 to 10.00	7.30 to 10.00	> 7.30	> 7.30	6.30 to 7.30	> 7.30	C[C@H]1Oc2cc(cnc2N)-c2c(C#N)ncn2Cc2ncc(F)cc2-c2ccc(F)cc21 [Example 48, (20R)-23-amino-11,17-difluoro-20-methyl-21-oxa-4,6,9,24-tetraazapentacyclo[20.3.1.0^2,^6.0^8,^13.0^14,^19]hexacosa-1(25),2,4,8(13),9,11,14,16,1 8,22(26),23-undecaene-3-carbonitrile]	A (bin A for very high selectivity, ratio >30-fold)	A (bin A for very high selectivity, ratio >30-fold)	B (bin B for high selectivity, ratio >10-fold)	A (bin A for very high selectivity, ratio >30-fold)
> 7.30	6.30 to 7.30	7.30 to 10.00	7.30 to 10.00	7.30 to 10.00	6.30 to 7.30	> 7.30	> 7.30	6.30 to 7.30	> 7.30	CCc1noc2c1-c1cnc(N)c(c1)O[C@H](C)c1cc(F)ccc1-c1nn(C)nc1C2 [Example 22, (19R)-3-ethyl-16-fluoro-10,19-dimethyl-5,20-dioxa-4,9,10,11,23-pentaazapentacyclo[19.3.1.0^2,^6.0^8,^12.0^13,^18]pentacosa-1(24),2(6),3,8,11,13,15,17,21(25),22-decaen-22-amine]	A (bin A for very high selectivity, ratio >30-fold)	A (bin A for very high selectivity, ratio >30-fold)	C (bin C for moderate selectivity, ratio ≥1)	B (bin B for high selectivity, ratio >10-fold)
> 7.30	6.30 to 7.30	7.30 to 10.00	7.30 to 10.00	7.30 to 10.00	6.30 to 7.30	> 7.30	> 7.30	6.30 to 7.30	> 7.30	CCn1ncc2c1-c1cnc(N)c(c1)O[C@H](C)c1cc(F)ccc1-c1nc(C)nn1C2 [Example 33, (19R)-3-ethyl-16-fluoro-10,19-dimethyl-20-oxa-hexaazapentacyclo[19.3.1.0^2,^6.0^8,^12.0^13,^18]pentacosa-1(24),2(6),4,9,11,13,15,17,21(25),22-decaen-22-amine]	A (bin A for very high selectivity, ratio >30-fold)	A (bin A for very high selectivity, ratio >30-fold)	C (bin C for moderate selectivity, ratio ≥1)	A (bin A for very high selectivity, ratio >30-fold)
